Assay [1] concerns Botrytis cinerea. The experiment in a line: Antifungal activity against Botrytis cinerea. The class given is functional, organism-based.
For assay [2], the system named is Gaeumannomyces graminis. The experiment in a line: Antifungal activity against Gaeumannomyces graminis. It counts as functional, organism-based.
For assay [3], the system named is Kluyveromyces marxianus. The experiment in a line: Antifungal activity against Candida kefyr. It counts as functional.
The subject of assay [4] is Candida albicans. In words: Antifungal activity against Candida albicans. As to conditions: Candida albicans. It counts as functional, organism-based.
Assay [5] relates to Pichia kudriavzevii. In words: Antifungal activity against Candida krusei. It counts as functional.
Assay [6] deals with Candida parapsilosis. The experiment in a line: Antifungal activity against Candida parapsilosis. The class given is functional. The note with it: Lodderomyces parapsilosis.
Assay [7] concerns Cryptococcus neoformans. The experiment in a line: Antifungal activity against Cryptococcus neoformans. It counts as functional.
Assay [8] relates to Candida tropicalis. The experiment in a line: Antifungal activity against Candida tropicalis. The class given is functional.
Assay [9] deals with Nakaseomyces glabratus. In words: Antifungal activity against Candida glabrata. It counts as functional.
Assay [10] has as its system Candida albicans. In words: Antifungal activity against Candida albicans incubated for 24 to 48 hrs by 96-well plate method. The class given is functional. The note with it: time 24-48 hrs.
The subject of assay [11] is Alternaria solani. In words: Antifungal activity against Alternaria solani relative to control. The class given is functional. Also noted: concentration or dose not given beside the values.
The test system of assay [12] is Cryptococcus deuterogattii. In words: Antifungal activity against Cryptococcus gattii VGII incubated for 24 to 48 hrs by 96-well plate method. It counts as functional, Cryptococcus gattii species complex. As to conditions: time 24-48 hrs.
Assay [13] has as its system Bipolaris maydis. The experiment in a line: Antifungal activity against Bipolaris maydis relative to control. It counts as functional. Set-up: concentration or dose not given beside the values.
The test system of assay [14] is Cryptococcus neoformans. The experiment in a line: Antifungal activity against Cryptococcus neoformans incubated for 24 to 48 hrs by 96-well plate method. The note with it: time 24-48 hrs. It counts as functional.
In assay [15] the test system is Bipolaris oryzae. The experiment in a line: Antifungal activity against Bipolaris oryzae incubated for 7 days. The note with it: 168 h, time 7 day. It counts as functional.
Assay [16] concerns Candida albicans. In words: Antifungal activity against Candida albicans incubated for 24 hrs by TTC staining method. It counts as functional.
Assay [17] relates to Bipolaris maydis. The experiment in a line: Antifungal activity against Bipolaris maydis assessed as inhibition rate of fungal growth at 50 mg/kg relative to control. The class given is functional.
Assay [18] deals with Alternaria solani. The experiment in a line: Antifungal activity against Alternaria solani assessed as inhibition rate of fungal growth at 50 mg/kg relative to control. The class given is functional.
The subject of assay [19] is Bipolaris oryzae. In words: Antifungal activity against Bipolaris oryzae. The class given is functional, organism-based.
In assay [20] the test system is Phytophthora litchii. The experiment in a line: Antifungal activity against Phytophthora litchii assessed as inhibition of growth rate at 100 mg/L relative to control. It counts as functional.
The test system of assay [21] is Curvularia lunata. In words: Antifungal activity against Curvularia lunata. It counts as functional, organism-based.
The test system of assay [22] is Fusarium solani. In words: Antifungal activity against Fusarium solani incubated for 72 hrs. It counts as functional, organism-based. As to conditions: time 72 hrs.
The subject of assay [23] is Fusarium solani. In words: Antifungal activity against Fusarium solani relative to control. The class given is functional.
Assay [24] concerns Mucor hiemalis. In words: Antifungal activity against Mucor hiemalis by 96-well plate method. The class given is functional.
Assay [25] relates to Botryosphaeria berengeriana. The experiment in a line: Antifungal activity against Physalospora pyricola relative to control. It counts as functional.
The test system of assay [26] is Botryosphaeria berengeriana. In words: Antifungal activity against Physalospora pyricola assessed as inhibition rate of fungal growth at 50 mg/kg relative to control. It counts as functional.
The subject of assay [27] is Metarhizium anisopliae. The experiment in a line: Antifungal activity against Metarhizium anisopliae assessed as reduction of growth rate relative to control. It counts as functional. Also noted: scale not given: the % may be the effect or the level left.
The subject of assay [28] is Trichophyton interdigitale. The experiment in a line: Antifungal activity against Trichophyton interdigitale. The class given is functional.
Assay [29] concerns Colletotrichum gloeosporioides. In words: Antifungal activity against Colletotrichum gloeosporioides assessed as diameter of zone inhibition at 100 ug per disk incubated for 24 hrs. The class given is functional. As to conditions: read-out: DIZ.
Assay [30] concerns Saccharomyces cerevisiae. In words: Antifungal activity against Saccharomyces cerevisiae assessed as diameter of zone inhibition at 100 ug per disk incubated for 24 hrs. The class given is functional. The note with it: read-out: DIZ.
Assay [31] concerns Phyllosticta citricarpa. In words: Antifungal activity Phyllosticta citricarpa against assessed as diameter of zone inhibition at 100 ug per disk incubated for 24 hrs. The class given is functional. The note with it: read-out: DIZ.
For assay [32], the system named is Cytospora mali. The experiment in a line: Antifungal activity against Valsa mali. It counts as functional.
For assay [33], the system named is Alternaria alternata. In words: Antifungal activity against Alternaria alternata. It counts as functional.
Assay [34] has as its system Alternaria brassicae. The experiment in a line: Antifungal activity against Alternaria brassicae. The class given is functional.
Assay [35] has as its system Saccharomyces cerevisiae. The experiment in a line: Antifungal activity against Saccharomyces cerevisiae. It counts as functional.
Assay [36] concerns Colletotrichum gloeosporioides. The experiment in a line: Antifungal activity against Colletotrichum gloeosporioides. The class given is functional.

The structures appear in SMILES notation. pEC50: −log10 of the molar value. Converted amounts (≈) assume the structure as drawn.

Take `COC(=O)c1cc2c([nH]c3ccccc32)c(C(N)=O)n1`: the results for the pEC50 in assay [1] and in assay [2] were 4.85 and 6.35, respectively.

For the compound `CCCCCCCC[C@@H]1N[C@H](C(=O)OC)Cc2c1[nH]c1ccccc21`, the MIC (in general, the lowest concentration that inhibits growth of the organism) in assay [3] is 23.7 µg/mL (≈ 69.1 µM); in assay [4] it was above 94.7 µg/mL; in [5], above 94.7 µg/mL; in assay [6], above 94.7 µg/mL; in assay [7], 14.8 µg/mL (≈ 43.2 µM); in [8] it was above 94.7 µg/mL. Further, it took 23.7 µg/mL (≈ 69.1 µM) to inhibit growth in assay [9] (MIC).

As for `Cc1nccc2c1[nH]c1c([N+](=O)[O-])cccc12`, the MIC in [10], in assay [12] and in [14] was 40 µg/mL (≈ 176 µM) each time. In addition, the Activity in [11] was determined as 88.9%; in assay [13] it was 94.7%.

Consider `CCCCCCCCN1CCc2c([nH]c3ccccc23)C1`, for which, in assay [15], the MIC was determined as 28 µg/mL (≈ 98.4 µM).

Turning to `O=[N+]([O-])c1cccc(-c2nc(-c3n[nH]c(=S)o3)cc3c2[nH]c2ccccc23)c1`, the MIC in assay [16] came to 3.1 µg/mL (≈ 7.96 µM).

For the compound `Cc1nc(/C=C/C(=O)O)cc2c1[nH]c1ccccc12`, the values for the inhibition in vivo at 50 mg/kg in assay [17] and in [18] were 9.8% and 10.5%, respectively. In addition, the Activity in [13] was 9.8%.

As to `CCCCCN1CCc2c([nH]c3ccccc23)C1`, in assay [19], a half-maximal effect (EC50) was put at 110 µg/mL (≈ 454 µM).

Regarding `O=C(Nc1ccccn1)c1cc2c([nH]c3ccccc32)c(-c2ccccc2)n1`, in [20], the inhibition – broadly, the change of the read-out against control, counted positive when it falls – at 100 µg/mL was 95.9%.

Regarding `CCCCCn1c2ccccc2c2cc(C)ncc21`, the EC50 – broadly, the concentration giving half of the maximal effect – in assay [21] worked out at 13.8 µg/mL (≈ 54.7 µM).

As for `CC(=O)Oc1ccc2c(c1)c1ccnc3ccc(=O)n2c31`, in assay [22], the “inhibition (INH)” value stood at 86%. The compound also registered an Activity in [23] of 86%.

The compound `Cc1cc2c3ccccc3n(C(C)C)c2cn1` displayed an EC50 in assay [21] of 4.23 µg/mL (≈ 18.9 µM).

The compound `CC(C)CCCC(=O)c1nc(C(=O)O)cc2c1[nH]c1ccccc12` displayed an MIC in assay [24] of 8.3 µg/mL (≈ 25.6 µM).

Turning to `CC1NC(C(=O)N/N=C/c2ccc(Cl)c(Cl)c2)Cc2c1[nH]c1ccccc21` (configuration not stated), the inhibition in vivo (as a rule, how much of the control response was suppressed) at 50 mg/kg in assay [17] came out at 80%; in assay [26], 97%. The compound also returned an Activity in [25] of 97%.

Take `CCCCCCCC[C@H]1N[C@H](C(=O)OC)Cc2c1[nH]c1ccccc21`: the MIC is 3.67 µg/mL (≈ 10.7 µM) in assay [3]; 14.8 µg/mL (≈ 43.2 µM) in [4]; 7.41 µg/mL (≈ 21.6 µM) in assay [5]; 14.8 µg/mL (≈ 43.2 µM) in assay [6]; 7.41 µg/mL (≈ 21.6 µM) in assay [7]; 7.41 µg/mL (≈ 21.6 µM) in assay [8]. The MIC in [9] turned out to be 3.67 µg/mL (≈ 10.7 µM).

`c1ccc2c(c1)[nH]c1cnccc12` [NORHARMANE]: the Activity in assay [27] is on record as 11.9%. Moreover, the minimum inhibitory concentration (MIC) in assay [28] stood at 100 µg/mL (≈ 595 µM).

With `C=Cc1nc(C(=O)O)cc2c1[nH]c1ccccc12`, the zone of inhibition at 100 µg/disc worked out at 16 mm in [29], 9 mm in assay [30] and 17 mm in assay [31].

As to `COCC(=O)N(c1c(C)cccc1C)C(C)C(=O)OC` (configuration not stated) [METALAXYL], in assay [20], the inhibition at 100 µg/mL is 93.4%.

Turning to `CC(=O)N1CCN(c2ccc(OCC3COC(Cn4ccnc4)(c4ccc(Cl)cc4Cl)O3)cc2)CC1` (configuration not stated) [KETOCONAZOLE], the MIC in assay [32] was determined as 12.5 µg/mL (≈ 23.5 µM); in assay [33] it was 12.5 µg/mL (≈ 23.5 µM); in assay [34], 12.5 µg/mL (≈ 23.5 µM); in [35] it was 2.5 µg/mL (≈ 4.7 µM); in [36], 12.5 µg/mL (≈ 23.5 µM).

These data come from ChEMBL document CHEMBL5136985, “Natural and synthetic β-carboline as a privileged antifungal scaﬀolds” (Eur J Med Chem, 2022).
